Paper PMC8699473, “An Easily Expandable Multi-Drug LC-MS Assay for the Simultaneous Quantification of 57 Oral Antitumor Drugs in Human Plasma” (Cancers, 2021)

How the values were obtained:
[1] = Freeze-thaw stability in spiked pooled human plasma; assay type: physicochemical
[2] = design: method as in supplement references [1-55] as printed per drug; details: minimum steady-state blood plasma concentration after multiple dose administration; ref supplement references [1-55] per drug; cited from earlier work

For `CS(=O)(=O)c1ccc(C(=O)Nc2ccc(Cl)c(-c3ccccn3)c2)c(Cl)c1` [Vismodegib], the “Freeze-Thaw Accuracy [%]” value ([1]; validation standard 2xLLOV) was 103.4%, the “Freeze-Thaw Accuracy [%]” value ([1]; validation standard LLOV) was 77.6% and the “Freeze-Thaw Accuracy [%]” value ([1]; validation standard MOV) was 103.2%. For the same molecule, the “Freeze-Thaw Accuracy [%]” value ([1]; validation standard ULOV) was 94.1% and the “cmin” value [2] was 11367 ng/mL.
